Assay results reported in patent US12582638B2, “Pharmaceutical composition for treating cancer, containing mTOR-signaling inhibitor as active ingredient” (KOREA ADVANCED INSTITUTE OF SCIENCE AND TECHNOLOGY, priority 2020, dated 2026).

Columns and labels:
p-S6K, p-S6, LC3 [1] = assay: Cell signaling assay, western blot, MDA-MB-231; type: cell-based, human; settings: 0, 5, and 10 μM, FIG. 7c
Procedure: (§1) Cells treated with various concentrations (0, 5, and 10 μM) of lomitapide were lysed with RIPA buffer containing a protease-inhibitor cocktail. The whole-cell lysate was incubated on ice for 30 minutes. After centrifugation at 4° C. and 13,300×g for 15 minutes, the supernatant was collected. For use as controls, HCT116, SW480, HT29, MDA-MB-231, and MDA-MB-468 cells were treated with 1 μM of torin, known as an mTOR inhibitor.
(§2) For western blot analysis, the supernatant was loaded onto 10% SDS-PAGE gel. The separated proteins were blotted onto a PVDF membrane. Then, the blots were incubated with antibodies at 4° C. for 12 hours as follows (Table 2).
(§3) Then, the blots were washed with TBST (a mixture of tris-buffered saline (TBS) and Tween 20), incubated with horseradish peroxidase-conjugated secondary antibody (Cell signaling) at 37° C. for 1 hour, and washed, followed by detecting enhanced chemiluminescence (ECL; Amersham).

HCT116 cells [2] = assay: Cell colony forming assay (crystal violet); type: cell-based, human; settings: 5 μM, 48 hours, vs wells treated without lomitapide
Procedure: To examine relationship between lomitapide and cancer cell colony forming rate in HCT116 cells, cancer cell colony forming rates were measured after addition of limitapide to HCT116 cells cultured in wells.
HCT116 cells were seeded at a density of 10^5 cells/well into 12-well plates and incubated 37° C. for 24 hours. Subsequently, the cells were incubated with 0 and 5 μM lomitapide at 37° C. for 48 hours in a 5% CO2 atmosphere. Then, 500 μL of crystal violet was added to each well and incubated at room temperature for 10 minutes to stain the cells. From the staining data, the cells were analyzed for growth rate.

HCT116 cells [3] = assay: HCT116 mouse xenograft model, tumor size; type: in vivo; settings: BALB/c nude mice; 50 mg/kg or 25 or 50 mg/kg intraperitoneally, or 10 mg/kg intratumorally; vs DMSO control; FIG. 14
Procedure: Lomitapide was examined for anticancer effect in tumor-implanted mice by monitoring tumor sizes in the mouse xenograft model after treatment with lomitapide.
Animal experiments were conducted according to the guideline approved by the institutional animal care and use committee in the Korean Advanced Institute of Science and Technology. HCT116 cells (4×10^6) were injected subcutaneously into male BALB/c nude mice at 8-12 weeks of age. After an average tumor volume reached 50 mm^3, the mice were randomly divided into two groups (5 mice/group). The mice were measured for weight and tumor size every two days. Tumor sizes were measured using calipers and determined according to formula 0.5×(width)^2×(Length). P-values were determined using Student's T test. Lomitapide was intraperitoneally injected at a dose of 50 mg/kg into the mice at days 1, 2, 3, 7, 8, 9, 13, 14, 15, and 16 after start of the experiment. For a control, DMSO was injected intraperitoneally into the mice (FIG. 14a).
An additional animal experiment was conducted. Lomitapide was intraperitoneally injected at a dose of 25 or 50 mg/kg into mice five times every two days after start of the experiment. Intraperitoneal injection of DMSO into mice was conducted for a control (FIG. 14b). […]

p-S6K, p-S6, LC3 [4] = assay: Cell signaling assay, western blot, HS746T; type: cell-based, human; settings: 0, 5, and 10 μM, FIG. 7e
Procedure: as §1, with “concentration” for “concentrations”, “controls,” for “controls, HCT116, SW480, HT29, MDA-MB-231, and MDA-MB-468”
(§4) For western blot analysis, the supernatant was loaded onto 10% SDS-PAGE gel. The separated proteins were blotted onto a PVDF membrane. Then, the blots were incubated with antibodies at 4° C. for 12 hours as follows (Table 3).
as §3

p-S6K, p-S6, LC3 [5] = assay: Cell signaling assay, western blot, SNU1; type: cell-based, human; settings: 0, 5, and 10 μM, FIG. 7f
Procedure: as §1, with “concentration” for “concentrations”, “controls,” for “controls, HCT116, SW480, HT29, MDA-MB-231, and MDA-MB-468”
as §4, §3

[6] = test system: p-AKT, p-mTOR, p-S6K, p-S6; assay: Cell signaling assay, western blot, HCT116; type: cell-based, human; settings: 0, 5, and 10 μM, dose-dependent, FIG. 6
Procedure: as §1, §2, §3

COV434 = assay: Cell viability, CellTiterGlo, 72 hours; type: cell-based; settings: COV434 cells, Ovary
Procedure: In addition to the colorectal cells, 120 cancer cell lines treated with various concentrations of lomitapide were assayed for viability.
To analyze cell viability, the cells were incubated with lomitapide at 37° C. for 72 hours in a 5% or 10% CO2 atmosphere and then equilibrated at room temperature for 1 hour, followed by addition of CellTiterGlo reagent (Promega). One hour later, luminescence was measured to calculate cell viability (%). The 120 cell lines were purchased from ATCC (American Type Culture Collection, Virginia, USA).

SMILES: O=C(NC1CCN(CCCCC2(C(=O)NCC(F)(F)F)c3ccccc3-c3ccccc32)CC1)c1ccccc1-c1ccc(C(F)(F)F)cc1 [lomitapide, N-(2,2,2-trifluoroethyl)-9-[4-[4-[[[4′-(trifluoromethyl)[1,1′-biphenyl]2-yl]carbonyl]amino]-1-piperidinyl]butyl]-9H-fluoren-9-carboxamide]
- conversion from LC3I into LC3II (p-S6K, p-S6, LC3 [1]): increased induction of conversion from LC3I into LC3II
- phosphorylation levels of target proteins (p-S6K and p-S6) (p-S6K, p-S6, LC3 [1]): remarkably decreased phosphorylation levels
- growth rate (colony forming) (HCT116 cells [2]): remarkably lower in growth rate
- tumor growth (tumor size) (HCT116 cells [3]): grow slowly, compared to the control
- conversion from LC3I into LC3II (p-S6K, p-S6, LC3 [4]): increased induction of conversion from LC3I into LC3II
- phosphorylation levels of target proteins (p-S6K, p-S6) (p-S6K, p-S6, LC3 [4]; dose-dependent): remarkably decreased phosphorylation levels
- conversion from LC3I into LC3II (p-S6K, p-S6, LC3 [5]): increased induction of conversion from LC3I into LC3II
- phosphorylation levels of target proteins (p-S6K, p-S6) (p-S6K, p-S6, LC3 [5]; dose-dependent): remarkably decreased phosphorylation levels
- phosphorylation of target proteins levels (p-AKT, p-mTOR, p-S6K, p-S6) [6]: decreased phosphorylation
- IC50 (COV434): 3.1 µM
